{"source": "patent US6096930A", "about": "“Herbicidal cyclohexane-1,3-dione derivatives and their preparation process” (Korea Research Institute of Chemical Technology, priority 1994, dated 2000)", "test_in_all_cases": "Herbicidal activity for paddy test", "format_in_all_cases": "in vivo", "key": {"ORYSA": {"system": "ORYSA", "settings": "for plant injury at 2 g/ha: 0.002 kg/ha; for plant injury at 8 g/ha: 0.008 kg/ha; for plant injury at 31 g/ha: 0.031 kg/ha; for plant injury at 125 g/ha: 0.125 kg/ha; for plant injury at 500 g/ha: 0.500 kg/ha", "procedure,_shortened": "(§1)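 Scores are visual estimates of percent control (0, no effect; 100, plants completely killed), recorded on species planted in furrows in sterilized sandy loam held in 115 cm^2 paddy pots.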"}, "MOOVA": {"system": "MOOVA", "procedure,_shortened": "as §1"}, "ECHOR": {"system": "ECHOR", "procedure,_shortened": "as §1"}, "SAGPY": {"system": "SAGPY", "procedure,_shortened": "as §1"}, "SCPJU": {"system": "SCPJU", "procedure,_shortened": "as §1"}, "[1]": {"settings": "3 Leaf, read-out: Herbicidal activity, ORYSA (3 Leaf)"}, "[2]": {"settings": "seed, read-out: Herbicidal activity, ORYSA (seed)"}}, "note": "Like-named read-outs stand apart in the source and are kept apart here.", "data": [{"smiles": "C=CCON=C(CC)C1=C(O)CC(c2c(C)c(C)c3c(c2C)CC(C)(CC)C3)CC1=O", "note": "(stereo not drawn) [Compound 13, 5-(2-Ethyl-2,4,5,7-tetramethylindan-6-yl)-2-[1-(allyloxyimino)propyl]-3-hydroxycyclohex-2-en-1-one]", "values": [{"measurement": "plant injury at 2 g/ha", "setting": "ORYSA; [1]", "value": 0, "unit": "%"}, {"measurement": "plant injury at 8 g/ha", "setting": "ORYSA; [1]", "value": 0, "unit": "%"}, {"measurement": "plant injury at 31 g/ha", "setting": "ORYSA; [1]", "value": 0, "unit": "%"}, {"measurement": "plant injury at 125 g/ha", "setting": "ORYSA; [1]", "value": 0, "unit": "%"}, {"measurement": "plant injury at 500 g/ha", "setting": "ORYSA; [1]", "value": 30, "unit": "%"}, {"measurement": "plant injury at 2 g/ha", "setting": "ORYSA; [2]", "value": 0, "unit": "%"}, {"measurement": "plant injury at 8 g/ha", "setting": "ORYSA; [2]", "value": 30, "unit": "%"}, {"measurement": "plant injury at 31 g/ha", "setting": "ORYSA; [2]", "value": 50, "unit": "%"}, {"measurement": "plant injury at 125 g/ha", "setting": "ORYSA; [2]", "value": 100, "unit": "%"}, {"measurement": "plant injury at 500 g/ha", "setting": "ORYSA; [2]", "value": 100, "unit": "%"}, {"measurement": "pest or weed control at 2 g/ha", "setting": "MOOVA; 0.002 kg/ha", "value": 0, "unit": "%"}, {"measurement": "pest or weed control at 8 g/ha", "setting": "MOOVA; 0.008 kg/ha", "value": 0, "unit": "%"}, {"measurement": "pest or weed control at 31 g/ha", "setting": "MOOVA; 0.031 kg/ha", "value": 0, "unit": "%"}, {"measurement": "pest or weed control at 125 g/ha", "setting": "MOOVA; 0.125 kg/ha", "value": 0, "unit": "%"}, {"measurement": "pest or weed control at 500 g/ha", "setting": "MOOVA; 0.500 kg/ha", "value": 30, "unit": "%"}, {"measurement": "pest or weed control at 2 g/ha", "setting": "ECHOR; 0.002 kg/ha", "value": 30, "unit": "%"}, {"measurement": "pest or weed control at 8 g/ha", "setting": "ECHOR; 0.008 kg/ha", "value": 50, "unit": "%"}, {"measurement": "pest or weed control at 31 g/ha", "setting": "ECHOR; 0.031 kg/ha", "value": 100, "unit": "%"}, {"measurement": "pest or weed control at 125 g/ha", "setting": "ECHOR; 0.125 kg/ha", "value": 100, "unit": "%"}, {"measurement": "pest or weed control at 500 g/ha", "setting": "ECHOR; 0.500 kg/ha", "value": 100, "unit": "%"}, {"measurement": "pest or weed control at 2 g/ha", "setting": "SAGPY; 0.002 kg/ha", "value": 0, "unit": "%"}, {"measurement": "pest or weed control at 8 g/ha", "setting": "SAGPY; 0.008 kg/ha", "value": 0, "unit": "%"}, {"measurement": "pest or weed control at 31 g/ha", "setting": "SAGPY; 0.031 kg/ha", "value": 0, "unit": "%"}, {"measurement": "pest or weed control at 125 g/ha", "setting": "SAGPY; 0.125 kg/ha", "value": 30, "unit": "%"}, {"measurement": "pest or weed control at 500 g/ha", "setting": "SAGPY; 0.500 kg/ha", "value": 30, "unit": "%"}, {"measurement": "pest or weed control at 2 g/ha", "setting": "SCPJU; 0.002 kg/ha", "value": 0, "unit": "%"}, {"measurement": "pest or weed control at 8 g/ha", "setting": "SCPJU; 0.008 kg/ha", "value": 0, "unit": "%"}, {"measurement": "pest or weed control at 31 g/ha", "setting": "SCPJU; 0.031 kg/ha", "value": 0, "unit": "%"}, {"measurement": "pest or weed control at 125 g/ha", "setting": "SCPJU; 0.125 kg/ha", "value": 0, "unit": "%"}, {"measurement": "pest or weed control at 500 g/ha", "setting": "SCPJU; 0.500 kg/ha", "value": 0, "unit": "%"}]}]}
